# What was measured:
# [1] = molecular target: T1, hIBAT (Homo sapiens, UniProt Q12908); assay: IBAT (h/m) assay: 3H-taurocholic acid uptake in human IBAT-overexpressing cells; format: cell-based; conditions: 0.25 μM 3H-taurocholic acid + 5 μM cold taurocholic acid, 20 minutes at 37° C., highest test concentration 10 μM
# T1 construct: expressed in transfected cells; kept under Puromycin selection
# T1 sequence (Q12908 1-348): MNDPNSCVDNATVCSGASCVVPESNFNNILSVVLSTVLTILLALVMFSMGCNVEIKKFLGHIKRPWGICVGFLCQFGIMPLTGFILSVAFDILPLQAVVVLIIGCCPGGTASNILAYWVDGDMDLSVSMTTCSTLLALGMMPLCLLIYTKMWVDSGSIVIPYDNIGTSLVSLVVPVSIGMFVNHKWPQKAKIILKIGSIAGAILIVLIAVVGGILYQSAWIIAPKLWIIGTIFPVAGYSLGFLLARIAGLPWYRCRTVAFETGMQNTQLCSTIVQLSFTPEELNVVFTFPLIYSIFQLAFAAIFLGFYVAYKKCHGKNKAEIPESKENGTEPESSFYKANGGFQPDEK
# Method in brief: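 Human or mouse IBAT-overexpressing cells cultured 48 h, then exposed for 20 min at 37 °C to compounds (top 10 μM, 3-fold, 10 points; 0.2% DMSO) with 0.25 μM 3H-taurocholic acid plus 5 μM cold taurocholic acid. Uptake stopped on ice, cells washed with cold 1 mM taurocholic acid, radioactivity counted by scintillation.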
# [2] = molecular target: T2, hLBAT (Homo sapiens, UniProt Q14973); assay: LBAT (h/m) assay: 3H-taurocholic acid uptake in human LBAT-overexpressing cells; format: cell-based; conditions: 0.3 μM 3H-taurocholic acid + 7.5 μM cold taurocholic acid, 20 minutes at 37° C.
# T2 construct: expressed in transfected cells; kept under Geneticin selection
# T2 sequence (Q14973 1-349): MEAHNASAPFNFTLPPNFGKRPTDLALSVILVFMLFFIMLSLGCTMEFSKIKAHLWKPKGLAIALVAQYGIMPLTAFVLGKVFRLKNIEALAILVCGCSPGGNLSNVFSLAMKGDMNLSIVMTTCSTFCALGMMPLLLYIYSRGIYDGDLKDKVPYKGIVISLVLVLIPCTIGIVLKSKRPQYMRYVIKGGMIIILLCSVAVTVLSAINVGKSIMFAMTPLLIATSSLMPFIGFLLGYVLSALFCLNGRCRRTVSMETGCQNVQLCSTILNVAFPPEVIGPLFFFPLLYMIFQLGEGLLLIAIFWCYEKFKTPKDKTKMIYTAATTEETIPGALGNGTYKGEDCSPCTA
# Method in brief: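 Human or mouse LBAT-overexpressing cells given 10-point inhibitor series with 0.3 μM 3H-taurocholic acid plus cold taurocholic acid (7.5 μM human, 25 μM mouse), 0.2% DMSO, for 20 min at 37° C. Stopped on ice, washed with 1 mM unlabelled taurocholic acid; uptake measured by scintillation counting.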
IC50 [1] [µM],IC50 [2] [µM],SMILES
0.0002,2.02,"CCCCC1(CC)CN(c2ccccc2)c2cc(SC)c(CSCC(=O)O)cc2S(=O)(=O)C1 (single isomer, unassigned) [2, enantiomer 1]"
0.0004,5.05,"CCCCC1(CC)CN(c2ccc(F)cc2)c2cc(SC)c(CSCC(=O)O)cc2S(=O)(=O)C1 (single isomer, unassigned) [7, enantiomer 1]"
0.0007,6,"CCCCC1(C)CN(c2ccccc2)c2cc(SC)c(CSCC(=O)O)cc2S(=O)(=O)C1 (single isomer, unassigned) [5, enantiomer 1]"

# From patent publication US20240067617A1 (Albireo AB, priority 2022, published 2024)
